Drawing on PubChem BioAssay (NCI), this text covers TGI and GI50 for ten molecules.

Some test systems named below: RXF 393 renal; NCI-H460 lung; HCC-2998 colon; A549 NSCLC; OVCAR-4 ovarian; KM12 colon; CCRF-CEM leukemia; 786-0 renal.
Holding throughout (test): NCI tumour cell line growth inhibition, 48 h

“And” between values parts separate entries of the source, which are not always exact repeats. Equal values may be shown once.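 Each compound was tested at five concentrations against cells in 96-well plates for 48 hours. Abbreviation: GI50, concentration required for 50% inhibition of growth. TGI is the concentration that stops growth completely.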 Where only a bound is given, the exact number is not on record here.

With `O=C(/C=C/c1ccccc1)c1ccccn1`, the TGI is 37.4 µM and 36.5 µM in the assay with RXF 393 renal; 32.7 µM and 49.1 µM with NCI-H460 lung; 26.7 µM and 35.8 µM in the assay on HCC-2998 colon; 46.1 µM and > 100 µM in the assay with A549 NSCLC; 54.8 µM and 47.2 µM with OVCAR-4 ovarian; 34.2 µM and 28.5 µM in the assay on KM12 colon. Moreover, the TGI in the assay with CCRF-CEM leukemia was 45.4 µM and 57.6 µM; in the assay with 786-0 renal it was 24.7 µM and 40.9 µM.

`COC(=O)[C@@H](C)C[C@H](Cc1ccccc1)NC(=O)c1nc([C@@H](C[C@H](C(C)C)N(C)C(=O)[C@@H](NC(=O)[C@H]2CC(=O)CCN2C)C(C)C)OC(C)=O)sc1C(C)C`: the GI50 is 0.27 µM in the assay on NCI-H460 lung; 0.141 µM in the assay with HCC-2998 colon; 0.775 µM with A549 NSCLC; 1.34 µM with OVCAR-4 ovarian; 0.132 µM in the assay on KM12 colon; 0.37 µM with CCRF-CEM leukemia. Further, in the assay on 786-0 renal, the GI50 is 0.347 µM. For the same molecule, the TGI was more than 5.85 µM with NCI-H460 lung; more than 16 µM in the assay with HCC-2998 colon; more than 16.7 µM with A549 NSCLC; more than 16.7 µM in the assay with OVCAR-4 ovarian; more than 6.76 µM in the assay on KM12 colon; more than 16.7 µM with CCRF-CEM leukemia. The same molecule returned a TGI in the assay on 786-0 renal of 8.82 µM.

In the case of `O=c1[nH]c2c(ccc3cnccc32)c2c1CCC2`, the GI50 in the assay with NCI-H460 lung was 0.376 µM; in the assay on HCC-2998 colon, 0.356 µM; in the assay on A549 NSCLC, 0.5 µM; with OVCAR-4 ovarian, 0.726 µM; in the assay on KM12 colon it was 0.332 µM; in the assay with CCRF-CEM leukemia it was 0.248 µM. Besides, in the assay with 786-0 renal, the GI50 is 0.344 µM. Further, the TGI in the assay with NCI-H460 lung is more than 28.9 µM; in the assay on HCC-2998 colon, 1.91 µM; in the assay on A549 NSCLC, more than 53.5 µM; in the assay on OVCAR-4 ovarian it was more than 100 µM; with KM12 colon, more than 35.7 µM; with CCRF-CEM leukemia, 0.708 µM. In addition, the TGI in the assay with 786-0 renal was 29.9 µM.

Turning to `CC(=O)[O-].O=C([CH-]C(=O)c1ccccc1)c1ccccc1.O=C([CH-]C(=O)c1ccccc1)c1ccccc1.[Dy+3]`, the GI50 in the assay with RXF 393 renal is 6.84 µM; in the assay with NCI-H460 lung it was 6.66 µM; in the assay on HCC-2998 colon it was 11.6 µM; with A549 NSCLC, 18 µM; in the assay with OVCAR-4 ovarian, 16.5 µM; in the assay on KM12 colon, 21 µM. Besides, in the assay on 786-0 renal, the GI50 is 12 µM. Besides, the TGI in the assay with RXF 393 renal was 34.7 µM; in the assay with NCI-H460 lung it was more than 100 µM; in the assay with HCC-2998 colon, 36.2 µM; in the assay with A549 NSCLC it was 51.2 µM; in the assay with OVCAR-4 ovarian it was more than 100 µM; with KM12 colon, more than 100 µM. The molecule also yielded a TGI with 786-0 renal of 35.9 µM.

Consider `O=C(c1ccco1)c1c(C(F)(F)F)n([O-])c2cc(Cl)c(Cl)cc2[n+]1=O`, for which the GI50 in the assay on NCI-H460 lung was 0.121 µM; in the assay with HCC-2998 colon, 0.606 µM; in the assay with A549 NSCLC it was 1.04 µM; in the assay with OVCAR-4 ovarian, 4.17 µM; in the assay on KM12 colon, 0.186 µM; in the assay on CCRF-CEM leukemia, 0.384 µM. Further, the GI50 with 786-0 renal was 0.241 µM. Further, the TGI is 0.361 µM with NCI-H460 lung; 1.26 µM in the assay on HCC-2998 colon; 2.55 µM in the assay on A549 NSCLC; 12.7 µM in the assay on OVCAR-4 ovarian; 0.75 µM with KM12 colon; 9.5 µM in the assay with CCRF-CEM leukemia. The molecule also registered a TGI in the assay with 786-0 renal of 0.456 µM.

For `COc1ccc2c(c1)OCC1c3cc(OC)ccc3OC21` (stereo unspecified), the GI50 was 58 µM in the assay on RXF 393 renal; 32.1 µM in the assay on NCI-H460 lung; 5.42 µM with HCC-2998 colon; 89.1 µM with A549 NSCLC; 39.2 µM with OVCAR-4 ovarian; 43.3 µM with KM12 colon. The GI50 in the assay on 786-0 renal was more than 100 µM. For the same molecule, the TGI with RXF 393 renal was more than 100 µM; in the assay on NCI-H460 lung it was more than 100 µM; in the assay on HCC-2998 colon it was 58 µM; in the assay on A549 NSCLC it was more than 100 µM; in the assay on OVCAR-4 ovarian it was more than 100 µM; in the assay with KM12 colon, more than 100 µM. In the assay on 786-0 renal, this molecule showed a TGI of more than 100 µM.

With `CC1SC(c2ccc(OCc3ccccc3)cc2)N(NC(=O)C(O)(c2ccccc2)c2ccccc2)C1=O` (stereo unspecified), the GI50 is 3.53 µM with NCI-H460 lung; 1.92 µM with HCC-2998 colon; 4.68 µM with A549 NSCLC; 5.13 µM in the assay on OVCAR-4 ovarian; 2.29 µM with KM12 colon; 2.1 µM with CCRF-CEM leukemia. For the same molecule, in the assay on 786-0 renal, the GI50 is 1.98 µM. In addition, the TGI with NCI-H460 lung is 12.9 µM; with HCC-2998 colon, 4.99 µM; in the assay with A549 NSCLC, 20.8 µM; in the assay with OVCAR-4 ovarian, 36 µM; with KM12 colon it was 6.32 µM; in the assay with CCRF-CEM leukemia, 5.69 µM. The molecule also showed a TGI with 786-0 renal of 4.64 µM.

Turning to `Cc1nn(-c2ccccc2)c2c1[C@@H](C)[C@H]1CC3(CC4(C)C[C@@H]3C1(C)c1c(C)nn(-c3ccccc3)c1N4C)N2C` (stereo partly specified), the GI50 in the assay on RXF 393 renal is 3.41 µM; in the assay on HCC-2998 colon, more than 100 µM; in the assay on OVCAR-4 ovarian, 8.66 µM; in the assay on 786-0 renal, more than 100 µM. In addition, the TGI is 48.2 µM in the assay with RXF 393 renal, more than 100 µM in the assay with HCC-2998 colon, more than 100 µM in the assay on OVCAR-4 ovarian and more than 100 µM with 786-0 renal.

Regarding `COc1ccc2c(c1)c(-c1nc(-c3cn(C)c4ncccc34)cs1)cn2CCCCN1CCCCC1`, the GI50 was 1.33 µM with RXF 393 renal; 1.68 µM in the assay with NCI-H460 lung; 1.74 µM with A549 NSCLC; 1.83 µM in the assay with OVCAR-4 ovarian; 1.7 µM in the assay with KM12 colon; 1.61 µM in the assay on 786-0 renal. In addition, the TGI with RXF 393 renal stood at 2.82 µM; in the assay on NCI-H460 lung it was 3.2 µM; in the assay on A549 NSCLC, 3.21 µM; in the assay with OVCAR-4 ovarian it was 3.39 µM; in the assay with KM12 colon it was 3.15 µM; with 786-0 renal it was 3.06 µM.

As for `CCOc1ccc(-c2nc3ccc(-c4nc5ccc(N6CCN(C)CC6)cc5[nH]4)cc3[nH]2)cc1OCC`, the GI50 in the assay on RXF 393 renal is 1.14 µM; with NCI-H460 lung, 3.14 µM; in the assay with A549 NSCLC, 8.34 µM; in the assay on OVCAR-4 ovarian, 2.19 µM; in the assay on KM12 colon it was 3.88 µM; with CCRF-CEM leukemia, 2.04 µM. For the same molecule, the GI50 in the assay with 786-0 renal was 2.08 µM. The TGI in the assay on RXF 393 renal turned out to be 2.49 µM; with NCI-H460 lung, 10.4 µM; in the assay with A549 NSCLC it was 28.5 µM; with OVCAR-4 ovarian, 6.79 µM; with KM12 colon, 15.8 µM; in the assay with CCRF-CEM leukemia, 22.8 µM. Besides, the TGI in the assay on 786-0 renal was 5.93 µM.
